Laboratory results as given in patent publication US7939322B2, “Cells expressing pluripotency markers and expressing markers characteristic of the definitive endoderm” (Centocor Ortho Biotech Inc., priority 2008, dated 2011).

Columns and labels:
EXPRES 01 cells = assay: CXCR4 expression by FACS after DE differentiation; format: cell-based, human; conditions: passage 19, day 4; 100 nM GSK-3B inhibitor IX with 0.5% FBS, 20 ng/ml WNT-3a, 100 ng/ml activin-A (about 17% in earlier protocol without inhibitor)
Description: (§1) Adhered human embryonic stem cells were removed from culture plates by a five-minute incubation with TrypLE™ Express solution (Invitrogen, CA). Released cells were resuspended in human embryonic stem cell culture medium and recovered by centrifugation, followed by washing and resuspending the cells in a staining buffer consisting of 2% BSA, 0.05% sodium azide in PBS (Sigma, Mo.). As appropriate, the cells were Fc-receptor blocked for 15 minutes using a 0.1% γ-globulin (Sigma) solution. […] Controls included appropriate isotype matched antibodies, unstained cells, and cells stained only with secondary conjugated antibody. All incubations with antibodies were performed for 30 mins at 4° C., after which the cells were washed with the staining buffer. Samples that were stained with unconjugated primary antibodies were incubated for an additional 30 mins at 4° C. with secondary conjugated PE or -APC labeled antibodies. See Table IB for a list of secondary antibodies used. Washed cells were pelleted and resuspended in the staining buffer, and the cell surface molecules were identified using a FACS Array (BD Biosciences) instrument, collecting at least 10,000 events. […]

EXPRES 02 cells = assay: CXCR4 expression by FACS after DE differentiation; format: cell-based, human; conditions: passage 14, day 4; 100 nM GSK-3B inhibitor IX with 0.5% FBS, 20 ng/ml WNT-3a, 100 ng/ml activin-A (about 40% in earlier protocol without inhibitor)
Description: as §1

[1] = test system: Mouse Embryo Fibroblast (MEF); assay: Cell cycle analysis of mitomycin treated feeder cells; format: cell-based
Description: MEF cells, derived from E13 to 13.5 mouse embryos, were purchased from Charles River. MEF cells were expanded in DMEM medium supplemented with 10% FBS (Hyclone), 2 mM glutamine, and 100 mM MEM nonessential amino acids. Sub-confluent MEF cell cultures were treated with 10 μg/ml mitomycin C (Sigma, St. Louis, Mo.) for 3 h to arrest cell division, then trypsinized and plated at 2×10^4/cm2 on 0.1% bovine gelatin-coated dishes. MEF cells from passage two through four were used as feeder layers. […] For cell cycle analysis, cells were stained with 7AAD, and analyzed on FACS Array.

[2] = test system: human embryonic stem cell line H9; assay: Attachment of single human embryonic stem cells on uncoated TCPS with or without ROCK inhibitor; format: cell-based; conditions: 10 μm ROCK inhibitor, 24 hrs after seeding on TCPS, hypoxic (approximately 3% O2), compared to cultures without ROCK inhibitor
Description: Cells from the human embryonic stem cell line H9 at passage 35 lines were cultured under hypoxic conditions (approximately 3% O2) for at least three passages. The cells were cultured in MEF-CM supplemented with 8 ng/ml of bFGF and plated on MATRIGEL coated plates according to Example 1. At approximately 60% confluency, the cultures were exposed to TrypLE™ Express solution (Invitrogen, CA) for 5 mins. Released cells were resuspended in DM-F12+2% FBS medium, recovered by centrifugation, and counted using a hemocytometer. The released cells were seeded at 1000-10,000 cells/cm^2 on tissue culture polystyrene (TCPS) flasks and cultured in DM-F12+2% FBS+100 ng/ml activin-A+20 ng/ml WNT-3A+50 ng/ml of IGF-I+0.1 mM mercaptoethanol (Invitrogen, CA), non-essential amino acids (1×, NEAA from Invitrogen, CA)+/−10 μm ROCK inhibitor (Y-27632, Calbiochem, CA) under hypoxic conditions (approximately 3% O2) at 37° C. in a standard tissue culture incubator. The TCPS flaks were not coated with MATRIGEL or other extracellular matrix proteins. The media was changed daily. The first passage cells are referred to as P1. […] EXPRES cells derived using the ROCK inhibitor, Y27632 were designated as EXPRES 15.

[3] = test system: expanded cells derived from human embryonic stem cell line H9; assay: Real-time PCR of DE and visceral endoderm markers in expanded cells; format: cell-based
Description: Real-time PCR amplification and quantitative analysis: Unless otherwise stated, all reagents were purchased from Applied Biosystems. Real-time PCR reactions were performed using the ABI PRISM® 7900 Sequence Detection System. TAQMAN® UNIVERSAL PCR MASTER MIX® (ABI, CA) was used with 20 ng of reverse transcribed RNA in a total reaction volume of 20 μl. Each cDNA sample was run in duplicate to correct for pipetting errors. Primers and FAM-labeled TAQMAN® probes were used at concentrations of 200 nM. The level of expression for each target gene was normalized using a human glyceraldehyde-3-phosphate dehydrogenase (GAPDH) endogenous control previously developed by Applied Biosystems. SOX-17 primers were designed using the PRIMERS program (ABI, CA) and were the following sequences: SOX-17: TGGCGCAGCAGATACCA, AGCGCCTTCCACGACTTG, and […]. After an initial incubation at 50° C. for 2 min followed by 95° C. for 10 min, samples were cycled 40 times in two stages—a denaturation step at 95° C. for 15 sec followed by an annealing/extension step at 60° C. for 1 min. Data analysis was carried out using GENEAMP®7000 Sequence Detection System software. For each primer/probe set, a Ct value was determined as the cycle number at which the fluorescence intensity reached a specific value in the middle of the exponential region of amplification. Relative gene expression levels were calculated using the comparative Ct method. Briefly, for each cDNA sample, the endogenous control Ct value was subtracted from the gene of interest Ct to give the delta Ct value (ΔCt). The normalized amount of target was calculated as 2-ΔCt, assuming amplification to be 100% efficiency. Final data were expressed relative to a calibrator sample.
Cultures derived from the parental human embryonic stem cell line H9 according to the methods described in Example 6 were passaged every 4-7 days. FIG. 5 depicts real-time PCR results for the expanded cells cultured in 2% FBS+DMEM-F12+100 ng/ml of activin-A+20 of WNT3A for three passages. […] There is a clear decrease in DE markers, such as SOX-17 and HNF-3 beta following each passage. […]

EXPRES cells = assay: Population doubling time of EXPRES cells in growth media; format: cell-based, human; conditions: H9-derived EXPRES cells on TCPS, hypoxic; IGF-I at 50 ng/ml added to growth media (DMEM-F12+2% FBS+100 ng/ml activin-A+20 ng/ml WNT-3A)
Description: Cells from the human embryonic stem cell lines H1 and H9 various passages (Passage 30-54) were cultured under hypoxic conditions (approximately 3% 02) for at least three passages. The cells were cultured in MEF-CM supplemented with 8 ng/ml of bFGF and plated on MATRIGEL coated plates according to Example 1. The cells were exposed to the DE protocol outlined in Example 5. At days 3-6, the cultures were exposed to TrypLE™ Express solution (Invitrogen, CA) for 5 mins. Released cells were resuspended in DMEM-F12+2% FBS medium, recovered by centrifugation, and counted using a hemocytometer. The released cells were seeded at 1000-10,000 cells/cm^2 on tissue culture polystyrene (TCPS) treated flasks and cultured in DMEM-F12+2% FBS+100 ng/ml activin-A+20 ng/ml WNT-3A under hypoxic conditions (approximately 3% O2) at 37° C. in standard tissue culture incubator. The TCPS flaks were not coated with MATRIGEL or other extracellular matrix proteins. The media was changed daily. In some cultures, the media was further supplemented with 10-50 ng/ml of IGF-I (insulin growth factor-I from R&D Systems, MN) or 1×ITS (Insulin, transferrin, and selenium from Invitrogen, Ca). In some of the culture conditions the basal media (DM-F12+2% FBS) was further supplemented with 0.1 mM mercaptoethanol (Invitrogen, CA) and non-essential amino acids (1×, NEAA from Invitrogen, CA). […]

EXPRES 03 cells = assay: Proliferation and cell cycle analysis (BRDU incorporation, 7AAD); format: cell-based, human
Description: Methods: Cells were seeded at 5,000-10,000 cells/cm^2 in Cell Bind tissue culture flasks (Corning) and cultured for 2-4 days. EXPRES 03 cells were cultured either in growth medium containing 2% FBS in DMEM/F12 and Activin-A (100 ng/ml), wnt3a (10-20 ng/ml) and IGF (50 ng/ml). For comparative proliferation analysis, IGF was sometimes omitted from the growth factor cocktail. Cell proliferation was analyzed using the APC BRDU Flow kit according to the Manufacturer's recommendations (BD Biosciences, San Diego, Calif.). Briefly, cells were pulsed with BRDU for 1-2 hrs at the end of culture period, released using Tryple E Express and counted. Cells were fixed in BD Cytofix/Cytosperm Buffer, incubated for 30 min, followed by incubation with BD Cytoperm buffer for 10 minutes on ice. Cells were then treated with DNAse for 1 hr at 37° C. to expose incorporated BRDU, followed by staining with APC conjugated anti-BRDU antibody. For cell cycle analysis, cells were stained with 7AAD, and analyzed on FACS Array.

[4] = addition of 50 ng/ml IGF-I and withdrawal of Activin-A and WNT-3A

O=C1Nc2cc(Br)ccc2/C1=C1/Nc2ccccc2/C1=N\O [GSK-3B inhibitor IX]
CXCR4 positive cells (EXPRES 01 cells): approximately 57%
CXCR4 positive cells (EXPRES 02 cells): approximately 86%

CO[C@@]12[C@H](COC(N)=O)C3=C(C(=O)C(C)=C(N)C3=O)N1C[C@@H]1N[C@@H]12 [mitomycin, mitomycin C]
cells in G2/M phase [1]: 64%

C[C@@H](N)[C@H]1CC[C@H](C(=O)Nc2ccncc2)CC1 [Y-27632]
number of attached cells [2]: significantly larger number of attached cells

WNT3A
expression of DE markers ([3]; WNT3A added to growth media containing activin-A): significant boost

IGF-I: insulin growth factor-I from R&D Systems; recombinant human IGF-1
population doubling time (EXPRES cells): approximately 55 hrs
expression of DE markers along with OCT-4 [3, 4]: precipitous drop
expression of visceral endoderm markers, such as SOX-7 and AFP [3, 4]: increase
frequency of cells in S-phase, presence versus absence of IGF (EXPRES 03 cells; BRDU exposure for 1 hour or more): only marginal differences
number of cells grown in presence of IGF relative to absence of IGF (EXPRES 03 cells; IGF 50 ng/ml, after 3-4 days): 2-3 times
